The values that follow come from patent US4950602A, “Inhibition of lactate production by pyruvate adducts” (Cornell Research Foundation, Inc., priority 1987, dated 1990).

Structures are written as SMILES.

Assay [1] has as its target rat brain lactate dehydrogenase. Nature of the assay: Inhibition of rat brain lactate dehydrogenase (rat brain homogenate). The class given is biochemical. The settings on record: in the presence of either 0.2 or 2 mM pyruvate and 0.1 mM NADH.
Assay [2] deals with lactate production from D-glucose in rat brain postnuclear supernatant fraction. The assay is described as follows: Lactate production from D-glucose in rat brain postnuclear supernatants. The class given is biochemical. As to the method:
FIG. 2 is a graphic presentation of inhibition of lactate production from D-glucose by rat brain postnuclear supernatant fraction and by synaptosoms incubated with RAP. Lactate production was determined for a 20-min incubation at 37° C. Values (expressed as % of the control rate) are mean±SD of 3-6 determinations. The control value was 8.1±0.9 nmol of lactate produced/min/mg protein, *P<0.05, **P<0.03 and ***P<0.005vs. control values.
Postnuclear supernatant fraction (containing the glycolytic enzymes) was prepared from rat brain according to the method of Lai et al (1984, supra). Rat brain synaptosomes were prepared according to the method of Lai et al (1980, Biochem. Pharmacol., 29:141-146). Lactate generated by these preparations in the presence of D-glucose was measured with lactate dehydrogenase as described by Lai et al (1984, supra), except that the concentrations of sodium phosphate buffer and nicotinamide used in the medium were respectively 5 and 20 mM. (In some cases where there was a carry over of appreciable RAP to the assay mix, ten times the recommended amount of lactate dehydrogenase was used and the effectiveness of the enzyme in converting lactate to pyruvate was checked by addition of lactate standards to the cuvette after the initial reaction was over).

In assay [3] the target is T1, bovine heart α-ketoglutarate dehydrogenase complex (Bos taurus, UniProt F1N206).
T1 construct: purchased Sigma Chemical Company (St. Louis, Mo.); host or cells: bovine heart
T1 sequence (F1N206 36-509, one chain of several): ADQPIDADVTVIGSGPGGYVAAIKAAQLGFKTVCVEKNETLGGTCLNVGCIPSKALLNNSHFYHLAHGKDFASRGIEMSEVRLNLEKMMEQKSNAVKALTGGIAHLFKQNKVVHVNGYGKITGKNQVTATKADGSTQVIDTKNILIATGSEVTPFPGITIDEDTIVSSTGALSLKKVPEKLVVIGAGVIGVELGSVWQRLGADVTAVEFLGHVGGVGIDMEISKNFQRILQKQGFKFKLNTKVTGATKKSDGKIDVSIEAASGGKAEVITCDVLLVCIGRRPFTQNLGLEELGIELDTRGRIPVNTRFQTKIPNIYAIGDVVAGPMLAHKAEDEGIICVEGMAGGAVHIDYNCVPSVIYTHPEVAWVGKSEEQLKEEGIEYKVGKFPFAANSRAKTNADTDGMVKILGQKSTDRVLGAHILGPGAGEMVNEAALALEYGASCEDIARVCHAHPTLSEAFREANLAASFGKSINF
The assay is described as follows: Purified bovine heart α-ketoglutarate dehydrogenase complex with RAP. The class given is biochemical. The conditions noted are these: 20 μM RAP. The text has this:
(§1) Enzymes and enzyme assays. Rabbit muscle glyceraldehyde-3-phosphate dehydrogenase (80 U/mg: ammonium sulfate suspension), rabbit muscle glycerol-3-phosphate dehydrogenase (40 U/mg; ammonium sulfate suspension),beef liver glutamate dehydrogenase (120 U/mg: in 50% glycerol), mitochondrial pig heart malate dehydrogenase (1100 U/mg; in 50% glycerol) and yeast hexokinase (140 U/mg; ammonium sulfate suspension) were purchased from Boehringer Mannheim Corp. (Indianapolis). Beef heart lactate dehydrogenase (280 U/mg) was purchased from Worthington Biochemical Corporation (Freehold, N.J.). Porcine heart L-alanine aminotransferase (130 U/mg), rabbit muscle phosphofructokinase (140 U/mg; ammonium sulfate suspension), bovine heart α-ketoglutarate (8 U/mg) and pyruvate (5 U/mg) dehydrogenase complexes, sodium pyruvate, L-methionine-SR-sulfoximine, DL-vinylglycine, NAD^+, NADH and NAD^+ analogues (3-acetylpyridine, thionicotinamide, and 3-pyridinealdehyde adenine dinucleotides) were purchased from Sigma Chemical Company (St. Louis, Mo.).
(§2) Each of the enzymes was assayed by procedures in which change of absorbance at 340 nm due to NADH was followed essentially as described by Bergmeyer (1974, Methods of Enzymatic Analysis, 2nd Eng. Ed., Verlag Chemie Weinheim Academic Press, N.Y.) with the following exceptions. […]

In assay [4] the target is T2, beef liver glutamate dehydrogenase (Bos taurus, UniProt P00366).
T2 construct: purchased Boehringer Mannheim Corp. (Indianapolis); host or cells: beef liver
T2 sequence (P00366 58-558): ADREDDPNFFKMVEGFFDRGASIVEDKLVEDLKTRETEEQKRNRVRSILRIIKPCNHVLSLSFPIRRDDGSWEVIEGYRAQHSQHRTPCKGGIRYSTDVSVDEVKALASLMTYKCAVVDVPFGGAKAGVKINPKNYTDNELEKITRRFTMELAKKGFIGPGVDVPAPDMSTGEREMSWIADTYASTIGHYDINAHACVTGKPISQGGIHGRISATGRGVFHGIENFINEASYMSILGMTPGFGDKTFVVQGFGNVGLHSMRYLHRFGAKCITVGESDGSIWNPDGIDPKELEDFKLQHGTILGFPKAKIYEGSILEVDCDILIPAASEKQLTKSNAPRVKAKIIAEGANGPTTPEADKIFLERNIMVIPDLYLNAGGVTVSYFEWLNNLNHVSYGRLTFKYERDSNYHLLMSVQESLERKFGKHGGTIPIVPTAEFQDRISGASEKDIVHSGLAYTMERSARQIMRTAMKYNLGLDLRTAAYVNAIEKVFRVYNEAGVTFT
Nature of the assay: Commercial glutamate dehydrogenase with RAP. It counts as biochemical. The conditions noted are these: 20 μM RAP.
Source text: as §1, §2

Assay [5] has as its target T3, beef heart lactate dehydrogenase (Bos taurus, UniProt Q5E9B1).
T3 construct: purchased Worthington Biochemical Corporation (Freehold, N.J.); host or cells: beef heart
Nature of the assay: Inhibition of beef heart lactate dehydrogenase (NADH absorbance at 340 nm). The class given is biochemical, bovine. The settings on record: for Relative Activity (%) Beef Heart: 0.24 mM pyruvate, 0.1 mM NADH, pH 7.2, 25° C.
Source text: as §1
Each of the enzymes was assayed by procedures in which change of absorbance at 340 nm due to NADH was followed essentially as described by Bergmeyer (1974, Methods of Enzymatic Analysis, 2nd Eng. Ed., Verlag Chemie Weinheim Academic Press, N.Y.) with the following exceptions. Phosphofructokinase was assayed according to the method of Lai et al (1984, J. Neurochem., 42:438-446). NAD^+ -linked isocitrate dehydrogenase was assayed as described by Lai and Clark (1976, Biochem. J., 154:423-432). Pyruvate and α-ketoglutarate dehydrogenase complexes were respectively assayed according to the methods of Lai and Sheu (1985, J. Neurochem., 45:1861-1868) and Lai and Cooper (1986) (J. Neurochem, 47:1376-1386).
The reaction mixture (1 ml) contained 0.24 mM sodium pyruvate, 0.1 mM
NADH, 100 mM potassium phosphate buffer (pH 7.2) and either purified
bovine heart lactate dehydrogenase (0.01 U) or rat brain homogenate
containing ~0.02 U of lactate dehydrogenase activity; 25° C.
Since APADpyruvate adduct and RAP have a tendency to revert to pyruvate
they were added to the reaction mixture just prior to addition of enzyme.
Because the kinetics obtained with tightbinding inhibitors depends on the
order of addition of substrates and inhibitors the enzyme was always adde
last. Each value is the average of at least 3 determinations. Each of the […]

T3 sequence (Q5E9B1 whole entry): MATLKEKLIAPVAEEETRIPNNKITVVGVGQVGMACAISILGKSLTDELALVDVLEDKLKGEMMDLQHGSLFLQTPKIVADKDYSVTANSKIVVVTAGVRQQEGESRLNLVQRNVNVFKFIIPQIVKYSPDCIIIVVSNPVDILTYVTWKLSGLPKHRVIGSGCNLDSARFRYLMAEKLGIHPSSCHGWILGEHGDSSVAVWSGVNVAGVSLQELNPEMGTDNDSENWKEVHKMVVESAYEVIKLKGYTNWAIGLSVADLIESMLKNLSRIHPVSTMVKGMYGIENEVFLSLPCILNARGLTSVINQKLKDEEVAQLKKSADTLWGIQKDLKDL

Consider `Nc1ncnc2c1ncn2[C@@H]1O[C@H](COP(=O)(O)OP(=O)(O)OC[C@H]2O[C@@H](N3C=CC(CC(=O)C(=O)O)C(C=O)=C3)[C@H](O)[C@@H]2O)[C@@H](O)[C@H]1O` (some centres unmarked) [RAP, 3(-4-(reduced 3-pyridinealdehyde-adeninedinucleotide))-pyruvate], for which the IC50 in assay [1] is ~100 nM; in assay [2] (rat brain postnuclear supernatants, D-glucose, 20-min incubation at 37° C., true concentration lower since RAP dissociates, read-out: formal "concentration" required to inhibit lactate production by 50%), 1000 to 9000 nM. In assay [2], the “inhibition of lactate production from glucose in rat brain extracts” value was “strongly inhibited”. Also, in assay [2] (rat brain postnuclear supernatants, D-glucose), the “concentrations at which lactate production is inhibited in a concentration-dependent manner” value was “higher than 200 nM”. Moreover, the “effect on purified bovine heart α-ketoglutarate dehydrogenase complex” value in assay [3] is listed as “nor did 20 μM RAP inhibit”. Besides, the inhibition (usually the percentage by which the read-out fell short of the control) at 20 µM in assay [4] was ≤ 20%. Further, the inhibition constant Ki (as a rule, the dissociation constant of the complex between target and ligand, obtained from inhibition or displacement) in assay [5] (Ki for the A form, A isomer at the 4 position, taken as half of the mixture, calculated from Table 1 data) was 1.3 nM; in assay [5] (Ki, calculated from Table 1 data with Km for NADH 2.5 μM, standard equation for a competitive inhibitor), 2.6 nM. For the same molecule, the “Relative Activity (%) Beef Heart” value is reported as 79% in assay [5] (additive 42 nM), 58% in assay [5] (additive 84 nM), 40% in assay [5] (additive 132 nM) and 29% in assay [5] (additive 180 nM). The “potency as inhibitor of lactate dehydrogenase relative to the NAD-pyruvate adduct” value in assay [5] (from Table 1) was ~ 1000 fold. Also, the “type of inhibition with respect to pyruvate” value in assay [5] (suggested by the 2.4 mM pyruvate finding) is reported as “noncompetitive inhibitor with respect to pyruvate”.
